Here are results for three compounds from PubChem BioAssay AID1259407 (Chemical Carcinogenesis Research Information System (CCRIS), 2018).

The data set concerns CCRIS mutagenicity, Ames/micronucleus/aberration tests. Nature of the data set: CCRIS mutagenicity studies.
Where [1] appears, read: Test System: AMES SALMONELLA TYPHIMURIUM, Strain/Indicator: TA97, Metabolic Activation: NONE, Method: STANDARD PLATE.
[2] abbreviates: Test System: AMES SALMONELLA TYPHIMURIUM, Strain/Indicator: TA97, Metabolic Activation: RAT, LIVER, S-9, AROCLOR 1254, Method: STANDARD PLATE.
The mark [3] stands for this setting: Test System: AMES SALMONELLA TYPHIMURIUM, Strain/Indicator: TA98, Metabolic Activation: NONE, Method: STANDARD PLATE.
The mark [4] stands for this setting: Test System: AMES SALMONELLA TYPHIMURIUM, Strain/Indicator: TA98, Metabolic Activation: RAT, LIVER, S-9, AROCLOR 1254, Method: STANDARD PLATE.
[5] abbreviates: Test System: AMES SALMONELLA TYPHIMURIUM, Strain/Indicator: TA100, Metabolic Activation: NONE, Method: STANDARD PLATE.
Where [6] appears, read: Test System: AMES SALMONELLA TYPHIMURIUM, Strain/Indicator: TA100, Metabolic Activation: RAT, LIVER, S-9, AROCLOR 1254, Method: STANDARD PLATE.
Where [7] appears, read: Test System: AMES SALMONELLA TYPHIMURIUM, Strain/Indicator: TA102, Metabolic Activation: NONE, Method: STANDARD PLATE.
The mark [8] stands for this setting: Test System: AMES SALMONELLA TYPHIMURIUM, Strain/Indicator: TA102, Metabolic Activation: RAT, LIVER, S-9, AROCLOR 1254, Method: STANDARD PLATE.

Structures are written as SMILES. Calls of active or inactive are those of the source. How the calls were made is not given here.

Regarding `CC(C)CCC[C@@H](C)[C@H]1CC[C@H]2[C@@H]3C[C@@H](O)[C@@]4(O)C[C@@H](O)CC[C@]4(C)[C@H]3CC[C@]12C`, the mutagenic call was “active; positive” under setting [1]; “inactive; negative” under setting [2]; “active; positive” under setting [3]; “inactive; negative” under setting [4]; “active; positive” under setting [5]; “inactive; negative” under setting [6]. The mutagenic call runs as follows: under setting [7], “active; positive”; under setting [8], “inactive; negative”; (Test System: AMES SALMONELLA TYPHIMURIUM, Strain/Indicator: TA1535, Metabolic Activation: NONE, Method: STANDARD PLATE) “active; positive”; (Test System: AMES SALMONELLA TYPHIMURIUM, Strain/Indicator: TA1535, Metabolic Activation: RAT, LIVER, S-9, AROCLOR 1254, Method: STANDARD PLATE) “active; positive”; (Test System: CHINESE HAMSTER V-79, Strain/Indicator: V-79/8-AZAGUANINE, Metabolic Activation: NONE) “active; positive”; (Test System: CHINESE HAMSTER V-79, Strain/Indicator: V-79/OUABAIN, Metabolic Activation: NONE) “inactive; negative”. The mutagenic call reads like this: (Test System: IN VITRO CHROMOSOMAL ABERRATIONS, Strain/Indicator: CHINESE HAMSTER OVARY EPITHELIAL (CHO-K1) CELLS, Metabolic Activation: NONE) “active; positive (structural changes)”; (Test System: IN VITRO CHROMOSOMAL ABERRATIONS, Strain/Indicator: CHINESE HAMSTER OVARY EPITHELIAL (CHO-K1) CELLS, Metabolic Activation: RAT, LIVER, S-9, AROCLOR 1254) “active; positive (structural changes); lower response in presence of s-9”.
As for `c1cc2c3c(cccc3c1)CC2`, the mutagenic call by setting is: (Test System: AMES SALMONELLA TYPHIMURIUM, Strain/Indicator: TA97, Metabolic Activation: HAMSTER, LIVER, S-9, AROCLOR 1254 (10%), Method: PREINCUBATION) “inactive; negative”; (Test System: AMES SALMONELLA TYPHIMURIUM, Strain/Indicator: TA97, Metabolic Activation: HAMSTER, LIVER, S-9, AROCLOR 1254 (30%), Method: PREINCUBATION) “inactive; negative”; (Test System: AMES SALMONELLA TYPHIMURIUM, Strain/Indicator: TA97, Metabolic Activation: NONE, Method: PREINCUBATION) “inactive; negative”; (Test System: AMES SALMONELLA TYPHIMURIUM, Strain/Indicator: TA97, Metabolic Activation: RAT, LIVER, S-9, AROCLOR 1254 (10%), Method: PREINCUBATION) “inactive; negative”; (Test System: AMES SALMONELLA TYPHIMURIUM, Strain/Indicator: TA97, Metabolic Activation: RAT, LIVER, S-9, AROCLOR 1254 (30%), Method: PREINCUBATION) “inactive; negative”; (Test System: AMES SALMONELLA TYPHIMURIUM, Strain/Indicator: TA98, Metabolic Activation: HAMSTER, LIVER, S-9, AROCLOR 1254 (10%), Method: PREINCUBATION) “inactive; negative”. The mutagenic call reads like this: (Test System: AMES SALMONELLA TYPHIMURIUM, Strain/Indicator: TA98, Metabolic Activation: HAMSTER, LIVER, S-9, AROCLOR 1254 (30%), Method: PREINCUBATION) “inactive; negative”; (Test System: AMES SALMONELLA TYPHIMURIUM, Strain/Indicator: TA98, Metabolic Activation: NONE, Method: PREINCUBATION) “inactive; negative”; (Test System: AMES SALMONELLA TYPHIMURIUM, Strain/Indicator: TA98, Metabolic Activation: RAT, LIVER, S-9, AROCLOR 1254 (10%), Method: PREINCUBATION) “inactive; negative”; (Test System: AMES SALMONELLA TYPHIMURIUM, Strain/Indicator: TA98, Metabolic Activation: RAT, LIVER, S-9, AROCLOR 1254 (30%), Method: PREINCUBATION) “inactive; negative”; (Test System: AMES SALMONELLA TYPHIMURIUM, Strain/Indicator: TA100, Metabolic Activation: HAMSTER, LIVER, S-9, AROCLOR 1254 (10%), Method: PREINCUBATION) “inactive; negative”; (Test System: AMES SALMONELLA TYPHIMURIUM, Strain/Indicator: TA100, Metabolic Activation: HAMSTER, LIVER, S-9, AROCLOR 1254 (30%), Method: PREINCUBATION) “inactive; negative”. The mutagenic call (Test System: AMES SALMONELLA TYPHIMURIUM, Strain/Indicator: TA100, Metabolic Activation: NONE, Method: PREINCUBATION) was “inactive; negative”; the mutagenic call (Test System: AMES SALMONELLA TYPHIMURIUM, Strain/Indicator: TA100, Metabolic Activation: RAT, LIVER, S-9, AROCLOR 1254 (10%), Method: PREINCUBATION) is “inactive; negative”; the mutagenic call (Test System: AMES SALMONELLA TYPHIMURIUM, Strain/Indicator: TA100, Metabolic Activation: RAT, LIVER, S-9, AROCLOR 1254 (30%), Method: PREINCUBATION) was “inactive; negative”; the mutagenic call (Test System: AMES SALMONELLA TYPHIMURIUM, Strain/Indicator: TA1535, Metabolic Activation: HAMSTER, LIVER, S-9, AROCLOR 1254 (10%), Method: PREINCUBATION) was “inactive; negative”; the mutagenic call (Test System: AMES SALMONELLA TYPHIMURIUM, Strain/Indicator: TA1535, Metabolic Activation: HAMSTER, LIVER, S-9, AROCLOR 1254 (30%), Method: PREINCUBATION) is “inactive; negative”; the mutagenic call (Test System: AMES SALMONELLA TYPHIMURIUM, Strain/Indicator: TA1535, Metabolic Activation: NONE, Method: PREINCUBATION) was “inactive; negative”. Further, the mutagenic call reads like this: (Test System: AMES SALMONELLA TYPHIMURIUM, Strain/Indicator: TA1535, Metabolic Activation: RAT, LIVER, S-9, AROCLOR 1254 (10%), Method: PREINCUBATION) “inactive; negative”; (Test System: AMES SALMONELLA TYPHIMURIUM, Strain/Indicator: TA1535, Metabolic Activation: RAT, LIVER, S-9, AROCLOR 1254 (30%), Method: PREINCUBATION) “inactive; negative”; (Test System: AMES SALMONELLA TYPHIMURIUM, Strain/Indicator: TA1537, Metabolic Activation: HAMSTER, LIVER, S-9, AROCLOR 1254 (30%), Method: PREINCUBATION) “inactive; negative”; (Test System: AMES SALMONELLA TYPHIMURIUM, Strain/Indicator: TA1537, Metabolic Activation: NONE, Method: PREINCUBATION) “inactive; negative”; (Test System: AMES SALMONELLA TYPHIMURIUM, Strain/Indicator: TA1537, Metabolic Activation: RAT, LIVER, S-9, AROCLOR 1254 (30%), Method: PREINCUBATION) “inactive; negative”.
On to `O=S1OC[C@@H]2[C@H](CO1)[C@]1(Cl)C(Cl)=C(Cl)[C@@]2(Cl)C1(Cl)Cl` (stereo not given in full), for which the mutagenic call is, setting by setting: under setting [1], “inactive; negative”; under setting [2], “inactive; negative”; under setting [3], “inactive; negative”; under setting [4], “inactive; negative”; under setting [5], “inactive; negative”; under setting [6], “inactive; negative”. The mutagenic call under setting [7] is “inactive; negative” and the mutagenic call under setting [8] was “inactive; negative”.
